From BindingDB's records for doi:10.1021/jm00044a013 (Alkermes, 1994)

Target: Calpain-1 (Sus scrofa)
Experiment: In vitro inhibition of porcine erythrocyte calpain 1.

Compound	Ki [nM]
COC(=O)[C@H](C)NC(=O)C(=O)[C@@H](Cc1ccccc1)NC(=O)[C@H](CC(C)C)NC(=O)OCc1ccccc1 [(S)-2-[(R)-3-((S)-2-Benzyloxycarbonylamino-4-methyl-pentanoylamino)-2-oxo-4-phenyl-butyrylamino]-propionic acid methyl ester]	92
CCNC(=O)C(O)[C@@H](Cc1ccccc1)NC(=O)[C@H](CC(C)C)NC(=O)OCc1ccccc1 (stereo partly drawn) [[(S)-1-((R)-1-Benzyl-2-ethylcarbamoyl-2-hydroxy-ethylcarbamoyl)-3-methyl-butyl]-carbamic acid benzyl ester]	> 350000
CC(C)C[C@H](NC(=O)OCc1ccccc1)C(=O)N[C@H](Cc1ccccc1)C(=O)C(=O)N[C@@H](C)C(=O)O [(S)-2-[(R)-3-((S)-2-Benzyloxycarbonylamino-4-methyl-pentanoylamino)-2-oxo-4-phenyl-butyrylamino]-propionic acid]	718
